Assay results taken from US8586107B2, “Schisandra sphenanthera fruit extract and cosmetic, dermatological, and nutraceutical compositions comprising same” (Laboratoires Expanscience, priority 2009, dated 2013).
Marks after values point to notes of the source that are not given here.

Experiments:
[1] = test system: interleukin-1β (IL-1β) secretion; assay: IL-1β secretion induced by PMA in keratinocytes (ELISA); format: cell-based, human
Description: (§1) Normal human keratinocytes were preincubated for 24 hours with Schisandra peptides at concentrations of 0.005% and 0.05% or with 10^-7 M dexamethasone (anti-inflammatory reference molecule).
(§2) Inflammation was then induced by treatment with 10 μg/ml PMA for 24 hours, always in the presence of Schisandra peptides or dexamethasone.
(§3) At the end of incubation, the quantities of interleukin-1β (IL-1β), interleukin-8 (IL-8) and interleukin-6 (IL-6) present in the culture supernatants were measured by ELISA.
(§4) In parallel, the number of biologically active cells is determined by a neutral red test. The quantity of cytokine assayed for each condition is reduced to the number of living cells by dividing by the OD540 value obtained at the end of the neutral red test.

[2] = test system: interleukin-8 (IL-8) secretion; assay: IL-8 secretion induced by PMA in keratinocytes (ELISA); format: cell-based, human
Description: as §1, §2, §3, §4

[3] = test system: interleukin-6 (IL-6) secretion; assay: IL-6 secretion induced by PMA in keratinocytes (ELISA); format: cell-based, human; details: for IL-6: keratinocytes
Description: as §1, §2, §3, §4

[4] = test system: VEGF secretion; assay: VEGF protein release induced by PMA in keratinocytes (ELISA); format: cell-based, human
Description: Normal human keratinocytes were preincubated for 24 hours with Schisandra peptides at concentrations of 0.005%, 0.05% and 0.1% or with 10^-7 M dexamethasone (anti-inflammatory reference molecule).
as §2
At the end of incubation, the quantity of VEGF present in the culture supernatants was measured by ELISA.
as §4
The significance of the results was verified by a single-factor analysis of variance followed by a Tukey's test (GraphPad Prism version 5.02 software, GraphPad Software, San Diego, Calif., USA).

[5] = test system: kallikrein 5 (KLK5) gene expression; assay: KLK5 gene expression induced by calcitriol in keratinocytes (real-time RT-PCR); format: cell-based, human; details: NHEK, 24 hours
Description: (§5) In order to evaluate the potential activity of Schisandra peptides in the inflammatory phase of rosacea, we studied the effect of this complex of active agents on kallikrein 5 (KLK5) and cathelicidin (LL37) gene expression induced by a vitamin D analogue (calcitriol) in keratinocytes.
(§6) Normal human epidermal keratinocytes (NHEK) were cultivated in culture medium supplemented with Ca++ in order to bring them to a state of differentiation.
(§7) The keratinocytes were treated for 24 hours with 0.05% (w/v) Schisandra peptides in the presence or absence of 10^-7 M calcitriol (vitamin D analogue).
(§8) At the end of the treatment, the culture supernatants were eliminated and total RNA extracted using an extraction kit (RNeasy Mini Kit, Qiagen). Total RNA were then assayed in chips using the Experion™ system and the Experion RNA StdSens kit (Bio-Rad) and then reverse-transcribed into cDNA using the iScript cDNA Synthesis kit (Bio-Rad).
(§9) The neo-synthesized cDNA relating to the genes of interest (KLK5 and LL37) or to the reference genes were amplified selectively by real-time PCR on an iQ5 system (Bio-Rad) using SybrGreen technology (iQ SybrGreen kit, Bio-Rad).
(§10) The real-time RT-PCR method enables the relative quantification of the expression level of a gene of interest in relation to that of a reference gene in response to a given treatment.
(§11) The quantitative analysis of the results is based on the collection of threshold cycles.
(§12) The threshold cycle is […] correlated with the initial number of copies of target DNA.
(§13) ΔCt is thus calculated as follows: ΔCt=Cttarget gene−Ctreference gene
(§14) In a second step, the variation, as a function of the treatment and the number of copies of the gene of interest, was determined. ΔΔCt is thus calculated as follows: ΔΔCt=ΔCtcontrol−ΔCttreated
(§15) Lastly, relative quantity (RQ) is calculated: RQ=(1+E)ΔΔCt.
(§16) E (efficiency) is considered equal to 1, and thus: RQ=2ΔΔCt
(§17) The significance of the results was verified for the ΔCt values by a single-factor analysis of variance followed by a Tukey's test (GraphPad Prism version 5.02 software, GraphPad Software, San Diego, Calif., USA).

[6] = test system: cathelicidin (LL37) gene expression; assay: LL37 gene expression induced by calcitriol in keratinocytes (real-time RT-PCR); format: cell-based, human; details: NHEK, 24 hours
Description: as §5, §6, §7, §8, §9, §10, §11, §12, §13, §14, §15, §16, §17

[7] = test system: Normal human dermal microvascular endothelial cells; assay: Endothelial cell proliferation in the absence or presence of VEGF (intracellular phosphatase activity); format: cell-based; details: 10 ng/ml VEGF
Description: Normal human dermal microvascular endothelial cells were incubated for 24 or 48 hours in the absence (control) or presence of Schisandra peptides at concentrations of 0.05% and 0.1% and in the presence and absence of 10 ng/ml vascular endothelial growth factor (VEGF), the reference activator.
At the end of incubation, cell viability was evaluated by a spectrophotometric assay of intracellular phosphatase activity.
Statistical significance was evaluated by a single-factor analysis of variance followed by a Holm-Sidak test.

[8] = test system: endothelin production; assay: Endothelin production by dermal microvascular endothelial cells (ELISA); format: cell-based, human; details: 6 hours, 16.7 nM insulin
Description: Endothelin is a neuropeptide with powerful vasoconstrictive activity. It is secreted by endothelial and epithelial cells (keratinocytes), fibroblasts, adipocytes and macrophages. The effect of Schisandra peptides on endothelin production by endothelial cells was studied.
Normal adult human dermal microvascular endothelial cells cultivated in a monolayer were incubated for 6 hours in the absence (control) or the presence of 0.05% and 0.1% Schisandra peptides or 16.7 nM insulin (reference activator).
At the end of the incubation period, secreted endothelin was quantified by ELISA. In parallel, the proteins contained in the cellular lysates were quantified by the Bradford method.
The quantity of endothelin assayed was thus normalized with the quantity of total proteins, and the results were then expressed as the ratio of endothelin (ng) to total protein (μg) in the layer of cells.
The statistical significance of the results was evaluated by a single-factor analysis of variance followed by a Holm-Sidak test.

[9] = 10−7 M dexamethasone 24 h preincubation + PMA 24 h
[10] = 10^-7 M calcitriol alone (stimulated control)
[11] = 10^-7 M calcitriol alone (stimulated control), control cells = 1
[12] = 10 μg/ml PMA 24 hours alone (stimulated control)

Compound: C[C@@H]1C[C@H]2[C@@H]3CCC4=CC(=O)C=C[C@]4(C)[C@@]3(F)[C@@H](O)C[C@]2(C)[C@@]1(O)C(=O)CO [dexamethasone]
- IL-1β [1, 9]: 0.037 ± 0.011 ODELISA-ODneutral red
- IL-8 [2, 9]: 0.973 ± 0.213 pg/ml/ODneutral red
- IL-6 release, change vs. stimulated control (PMA) ([3]; 10−7 M dexamethasone): −56%***
- IL-6 [3, 9]: 0.043 ± 0.012 ODELISA/ODneutral red
- VEGF ([4]; 10^−7 M dexamethasone 24 h preincubation + PMA 24 h): 1789.338 ± 489.677 pg/ml/ODneutral red

Compound: C=C1/C(=C\C=C2/CCC[C@]3(C)[C@@H]([C@H](C)CCCC(C)(C)O)CC[C@@H]23)C[C@@H](O)C[C@@H]1O [calcitriol]
- Stimulation of kallikrein 5 gene expression vs. control cells ([5]; 10^-7 M calcitriol): +149%
- Mean ΔCt (CtKLK5 − CtGAPDH) [5, 10]: 2.46
- ΔΔCt (KLK5) [5, 10]: 1.32
- KLK5 expression (RQ) [5, 11]: 2.49$$
- Stimulation of LL37 gene expression vs. control cells ([6]; 10^-7 M calcitriol): +795%
- Mean ΔCt (CtLL37 − CtGAPDH) [6, 10]: 11.01
- ΔΔCt (LL37) [6, 10]: 3.16
- LL37 expression (RQ) [6, 11]: 8.95$$$

Compound: CCCCCCCCCCCCCC(=O)O[C@@H]1[C@@H](C)[C@@]2(O)[C@@H](C=C(CO)C[C@]3(O)C(=O)C(C)=C[C@@H]23)[C@@H]2C(C)(C)[C@]12OC(C)=O [PMA]
- IL-1β [1, 12]: 0.106 ± 0.008 ODELISA-ODneutral red
- IL-8 [2, 12]: 2.056 ± 0.166 pg/ml/ODneutral red
- IL-6 [3, 12]: 0.098 ± 0.002 ODELISA/ODneutral red
- VEGF [4, 12]: 3333.861 ± 111.766 pg/ml/ODneutral red

Compound: VEGF
- Endothelial cell growth, stimulation in relation to control cells ([7]; 24 hours): +41.4%
- Endothelial cell growth, stimulation in relation to control cells ([7]; 48 hours): +96.3%

Compound: insulin: reference activator of endothelin production
- Endothelin production, change vs. control cells [8]: +30%
- Endothelin ([8]; endothelial cells): 1.72 ± 0.23 ng/μg of proteins
